Columns and labels:
[1] = tested on: Hedgehog Signaling Pathway; test: SAG-induced differentiation of C3H10T1/2 cells into osteoblastic cells, intracellular alkaline phosphatase activity; format: cell-based, mouse; conditions: Mus musculus, C3H 10T1/2, 120 h, 1 μM SAG, 5 days, alkaline phosphatase activity (OD405), read-out: IC50 values of compounds that inhibit Hh pathway
Description: (§1) The Application of SAG to Induce Pluripotent Mesenchymal Mouse Embryonic Cell C3H/10T1/2 to Differentiate into Osteoblastic Cells for the Determination of the Inhibitory Activity of N-(3-(1H-benzo[d]imidazol-2-yl)-4-chlorophenyl)-2-methyl-4-((2S,6R)-2,6-dimethylmorpholino)benzamide and Analogs on Hedgehog Signaling Pathway
The intracellular alkaline phosphatase activity is a reliable indication of the differentiation process. Therefore this enzymatic activity can be used to monitor the activity of hedgehog pathway inhibitors.
The C3H10T1/2 cells were grown in DMEM medium supplemented with 10% fetal bovine serum (FBS, Hyclone) at 37° C. with 5% CO2. 10000 cells were sown to each well of a 96-well microplate a day before the experiment and grown overnight. At the day of experiment, the inducing medium and inhibitor solutions were prepared as follows: the reference compound and testing compounds were serially diluted 1 to 3 and 1 to 10 in DMSO to seven concentrations with the eighth concentration being DMSO. A 10-fold dilution was prepared by mixing 10 μL of the DMSO dilution with 90 μL of fresh growing medium. […] Pre-sown cells were taken out from incubator and the medium was removed. To each well, 180 μL inducing medium was added and followed immediately with 20 μL of testing or reference compound dilutions. The testing compound concentrations are between 10 μM and 1 nM. The cells were then return to CO2 incubator to grow additional 5 days at 37° C.
(§2) After incubating for 5 days, the cells were taken out and intracellular alkaline phosphatase activity was tested. The alkaline phosphatase activity was measured as follows:
1) Preparation of Substrate Solution:
(§3) Solution A: A 0.5 mM MgCl2 (Sigma Prod. No. M-0250) solution was prepared.
(§4) After the pH value was adjusted to 9.8 with 5 M HCl at 37° C., the total volume was adjusted to 100 mL.
(§5) After it is completely dissolved the total volume was adjusted to 10 mL with the final concentration being 1 mM.
Substrate reaction medium: To 10 mL of solution B, 250 μL of solution A and 200 μL of solution C were added, and mixed well.
2) the Measurement of Intracellular Alkaline Phosphatase Activity:
(§6) After taking out the cells from the incubator, the cell culture medium was removed and cells were washed twice with PBS. 20 μL of lysis solution (0.2% Triton solution) was added to each well. After being shaken for 30 min at room temperature, each well of cells received 80 μL of substrate reaction medium. The microplate was placed immediately into a VariSkan Flashplate reader and absorbance at OD405 was read as background reading. The plate was replaced back to cell culture incubator at 37° C. for additional 30 min and the absorbance was read again using VariSkan Flash plate reader at OD405.
(§7) The data were analyzed by subtracting the background reading from the reading at 30 min, and the obtained numbers were plotted and analyzed with Prism 5 software (GraphPad). The phosphatase activity (calculated OD405) was plotted against the log concentration of testing compound, and the obtained plot was fitted with non-linear curve fitting equation to calculate IC50 values. The curve fitting equation is Y=Bottom+(Top−Bottom)/(1+10^((X−Log IC50))). X is the logarithm of concentration. Y is the measure of alkaline phosphatase activity (OD405).
(§8) The calculated IC50 value is a measurement of the inhibitory activity of compound to Hh pathway.

[2] = tested on: Hedgehog Signaling Pathway; test: SHH-induced differentiation of C3H10T1/2 cells into osteoblastic cells, intracellular alkaline phosphatase activity; format: cell-based, mouse; conditions: Mus musculus, C3H 10T1/2, 120 h, 10 nM SHH-N, 5 days, alkaline phosphatase activity (OD405), read-out: IC50 values of compounds that inhibit Hh pathway
Procedure: as §1, with “SHH” for “SAG”, “C3H10T1/2” for “C3H/10T1/2”
The C3H10T1/2 cells were grown in DMEM medium supplemented with 10% fetal bovine serum (FBS, Hyclone) at 37° C. with 5% CO2. 10000 cells were sown to each well of a 96-well microplate a day before the experiment and grown overnight. […] The reference compound and testing compounds were serially diluted 1 to 3 and 1 to 10 in DMSO to seven concentrations with the eighth concentration being DMSO. A 10-fold dilution was prepared by mixing 10 μL of the DMSO dilutions with 90 μL of fresh growing medium. Pre-sown cells were taken out from incubator and the medium was removed. To each well, 180 μL of inducing medium containing 10 nM of SHH-N was added and followed immediately with 20 μL of 10× testing or reference compound dilutions. The testing compound concentrations are between 10 μM and 10 nM. The cells were then returned to CO2 incubator to grow additional 5 days at 37° C.
as §2
3) Preparation of Substrate Solution:
as §3, §4, §5
Substrate reaction medium: to 10 mL of solution B, 250 μL of solution A and 200 μL of solution C were added, and mixed well.
4) The Measurement of Intracellular Alkaline Phosphatase Activity:
as §6
as §7, with “Y=Bottom+(Top−Bottom)/(1+10^(X−Log IC50)).” for “Y=Bottom+(Top−Bottom)/(1+10^((X−Log IC50))).”
as §8

IC50 [1]	IC50 [2]	Structure (SMILES)
74 nM	14 nM	Cc1cc(-c2ccccc2)ccc1C(=O)Nc1ccc(Cl)c(-c2nc3ccccc3[nH]2)c1 [Example 2, N-(3-(1H-benzo[d]imidazol-2-yl)-4-chlorophenyl)-3-methylbiphenyl-4-carboxamide]
111 nM	39 nM	COc1ccc(-c2ccc(C(=O)Nc3ccc(Cl)c(-c4nc5ccccc5[nH]4)c3)c(C)c2)cc1 [Example 3, N-(3-(1H-benzo[d]imidazol-2-yl)-4-chlorophenyl)-3-methyl-4′-methoxybiphenyl-4-carboxamide]
86 nM	7.8 nM	Cc1cc(-c2ccc(F)cc2)ccc1C(=O)Nc1ccc(Cl)c(-c2nc3ccccc3[nH]2)c1 [Example 4, N-(3-(1H-benzo[d]imidazol-2-yl)-4-chlorophenyl)-3-methyl-4′-fluorobiphenyl-4-carboxamide]
26 nM	5.9 nM	Cc1cc(-c2ccc(S(C)(=O)=O)cc2)ccc1C(=O)Nc1ccc(Cl)c(-c2nc3ccccc3[nH]2)c1 [Example 5, N-(3-(1H-benzo[d]imidazol-2-yl)-4-chlorophenyl)-3-methyl-4′-(methylsulfonyl)biphenyl-4-carboxamide]
156 nM	43 nM	CC(=O)c1ccc(-c2ccc(C(=O)Nc3ccc(Cl)c(-c4nc5ccccc5[nH]4)c3)c(C)c2)cc1 [Example 9, N-(3-(1H-benzo[d]imidazol-2-yl)-4-chlorophenyl)-3-methyl-4′-acetylbiphenyl-4-carboxamide]
74 nM	6.3 nM	Cc1cc(-c2cccc(F)c2)ccc1C(=O)Nc1ccc(Cl)c(-c2nc3ccccc3[nH]2)c1 [Example 10, N-(3-(1H-benzo[d]imidazol-2-yl)-4-chlorophenyl)-3-methyl-3′-fluorobiphenyl-4-carboxamide]
31 nM	1.7 nM	Cc1cc(-c2cccc(C#N)c2)ccc1C(=O)Nc1ccc(Cl)c(-c2nc3ccccc3[nH]2)c1 [Example 11, N-(3-(1H-benzo[d]imidazol-2-yl)-4-chlorophenyl)-3-methyl-3′-cyanobiphenyl-4-carboxamide]
153 nM	18 nM	O=C(Nc1ccc(Cl)c(-c2nc3ccccc3[nH]2)c1)c1ccc(-c2ccc(F)cc2)cc1 [Example 12, N-(3-(1H-benzo[d]imidazol-2-yl)-4-chlorophenyl)-4′-fluorobiphenyl-4-carboxamide]
86 nM	14.6 nM	O=C(Nc1ccc(Cl)c(-c2nc3ccccc3[nH]2)c1)c1ccc(-c2cccc(F)c2)cc1 [Example 13, N-(3-(1H-benzo[d]imidazol-2-yl)-4-chlorophenyl)-3′-fluorobiphenyl-4-carboxamide]
> 10000 nM	40 nM	COc1cc(-c2ccc(C(F)(F)F)cc2)ccc1C(=O)Nc1ccc(Cl)c(-c2nc3ccccc3[nH]2)c1 [Example 15, N-(3-(1H-benzo[d]imidazol-2-yl)-4-chlorophenyl)-3-methoxy-4′-(trifluoromethyl)biphenyl-4-carboxamide]
> 10000 nM	> 10000 nM	O=C(Nc1ccc(Cl)c(-c2nc3ccccc3[nH]2)c1)c1ccc(-c2ccc(C(F)(F)F)cc2)cc1O [Example 16, N-(3-(1H-benzo[d]imidazol-2-yl)-4-chlorophenyl)-3-hydroxy-4′-(trifluoromethyl)biphenyl-4-carboxamide]
81 nM	15 nM	O=C(Nc1ccc(Cl)c(-c2nc3ccccc3[nH]2)c1)c1ccc(-c2ccc(C(F)(F)F)cc2)cc1F [Example 17, N-(3-(1H-benzo[d]imidazol-2-yl)-4-chlorophenyl)-3-fluoro-4′-(trifluoromethyl)biphenyl-4-carboxamide]
161 nM	23 nM	O=C(Nc1ccc(Cl)c(-c2nc3ccccc3[nH]2)c1)c1ccc(-c2ccc(C(F)(F)F)cc2)cc1[N+](=O)[O-] [Example 19, N-(3-(1H-benzo[d]imidazol-2-yl)-4-chlorophenyl)-3-nitro-4′-(trifluoromethyl)biphenyl-4-carboxamide]
> 10000 nM	59 nM	Cc1cc(-c2ccc(C(F)(F)F)cc2)cc(C)c1C(=O)Nc1ccc(Cl)c(-c2nc3ccccc3[nH]2)c1 [Example 20, N-(3-(1H-benzo[d]imidazol-2-yl)-4-chlorophenyl)-3,5-dimethyl-4′-(trifluoromethyl)biphenyl-4-carboxamide]
163 nM	24 nM	O=C(Nc1ccc(Cl)c(-c2nc3ccccc3[nH]2)c1)c1ccc(-c2ccccc2)cc1 [Example 23, N-(3-(1H-benzo[d]imidazol-2-yl)-4-chlorophenyl) biphenyl-4-carboxamide]
255 nM	62 nM	Cc1cc(-c2ccc(N)cc2)ccc1C(=O)Nc1ccc(Cl)c(-c2nc3ccccc3[nH]2)c1 [Example 24, N-(3-(1H-benzo[d]imidazol-2-yl)-4-chlorophenyl)-3-methyl-4′-aminobiphenyl-4-carboxamide]
> 10000 nM	> 10000 nM	O=c1[nH]c2cc(-c3ccc(C(F)(F)F)cc3)ccc2c(=O)n1-c1ccc(Cl)c(-c2nc3ccccc3[nH]2)c1 [Example 26, 3-(3-(1H-benzo[d]imidazol-2-yl)-4-chlorophenyl)-7-(4-(trifluoromethyl)phenyl)quinazoline-2,4(1H,3H)-dione]
151 nM	57 nM	O=c1c2ccc(-c3ccc(C(F)(F)F)cc3)cc2ncn1-c1ccc(Cl)c(-c2nc3ccccc3[nH]2)c1 [Example 27, 3-(3-(1H-benzo[d]imidazol-2-yl)-4-chlorophenyl)-7-(4-(trifluoromethyl)phenyl)quinazolin-4(3H)-one]
228 nM	59 nM	O=C1c2ccc(-c3ccc(C(F)(F)F)cc3)cc2OCN1c1ccc(Cl)c(-c2nc3ccccc3[nH]2)c1 [Example 28, 3-(3-(1H-benzo[d]imidazol-2-yl)-4-chlorophenyl)-7-(4-(trifluoromethyl)phenyl)-2H-benzo[e][1,3]oxazin-4(3H)-one]
> 10000 nM	72 nM	O=C1c2ccc(-c3ccccc3)cc2CCN1c1ccc(Cl)c(-c2nc3ccccc3[nH]2)c1 [Example 29, 2-(3-(1H-benzo[d]imidazol-2-yl)-4-chlorophenyl)-6-phenyl-3,4-dihydroisoquinolin-1(2H)-one]
88 nM	31 nM	Cc1cc(N2CCOCC2)ccc1C(=O)Nc1ccc(Cl)c(-c2nc3ccccc3[nH]2)c1 [Example 30, N-(3-(1H-benzo[d]imidazol-2-yl)-4-chlorophenyl)-2-methyl-4-morpholinobenzamide]

— patent US10676468B2, “N-(3-heteroarylaryl)-4-arylarylcarboxamides and analogs as hedgehog pathway inhibitors and use thereof” (IMPACT Therapeutics, Inc., priority 2012, dated 2020)
